Results: article PMC3118409 (Cell, 2011)
Where “and” joins values, the source holds several entries; their conditions need not be identical. Equal entries are not always repeated. Where two headings read alike, the source gives them in different places.

What was measured:
[1] = molecular target: kynurenine aminotransferase II (KAT II) (Rattus norvegicus, UniProt Q64602); assay: Reverse microdialysis of the KAT II inhibitor ESBA in JM6-treated rats; assay type: in vivo; conditions: JM6 100 mg/kg p.o., ESBA 1 mM locally for 2 h by reverse microdialysis
APPtg mice [2] = assay type: in vivo; conditions: JM6 75 mg/kg/day p.o. for 120 days
WT mice = assay: Chronic tolerability of JM6 in WT mice; assay type: in vivo; conditions: JM6 25 mg/kg/day p.o. for 12 months, data not shown
[3] = assay type: in vivo, mice; conditions: 5 h
R6/2 mice [4] = assay: Neuropathology; assay type: in vivo
KMO [5] = assay: In vivo microdialysis in striatum and serum sampling of rats after acute JM6; conditions: for Level in brain dialysate: JM6 100 mg/kg p.o., data not shown
APPtg mice [6] = assay: Neuropathology; assay type: in vivo
R6/2 mice [7] = assay: Survival, body weight and rotarod in R6/2 mice; assay type: in vivo; conditions: chronic JM6 p.o., data not shown
APPtg mice [8] = assay: Elevated plus maze in APPtg mice; assay type: in vivo; conditions: JM6 75 mg/kg/day p.o. for ~120 days
APPtg mice [9] = assay: Morris water maze in APPtg mice; assay type: in vivo
KMO [10] = assay: In vivo microdialysis in prefrontal cortex of rats treated 7 days with JM6; conditions: JM6 for 7 days, 100 mg/kg/day p.o. (legend: 75 mg/kg/day)
KMO [11] = molecular target: KMO (Rattus norvegicus, UniProt O88867); assay: Inhibition of KMO; assay type: biochemical; conditions: read-out: IC50 for KMO
[12] = Ro 61-8048 levels in plasma and tissues of chronically JM6-treated R6/2 mice; assay type: in vivo
[13] = Metabolic stability of Ro 61-8048; assay type: in vitro ADME; conditions: data not shown
[14] = WT mice, single JM6 300 mg/kg p.o., LC/MS, 300 mg/kg
[15] = JM6 7.5 or 25 mg/kg/day p.o., 12-week-old mice
[16] = JM6 75 mg/kg/day p.o., data not shown
[17] = WT mice, single JM6 300 mg/kg p.o., LC/MS
[18] = R6/2 mice chronically treated with JM6

kynurenine aminotransferase II (KAT II), sequence (Q64602 30-425): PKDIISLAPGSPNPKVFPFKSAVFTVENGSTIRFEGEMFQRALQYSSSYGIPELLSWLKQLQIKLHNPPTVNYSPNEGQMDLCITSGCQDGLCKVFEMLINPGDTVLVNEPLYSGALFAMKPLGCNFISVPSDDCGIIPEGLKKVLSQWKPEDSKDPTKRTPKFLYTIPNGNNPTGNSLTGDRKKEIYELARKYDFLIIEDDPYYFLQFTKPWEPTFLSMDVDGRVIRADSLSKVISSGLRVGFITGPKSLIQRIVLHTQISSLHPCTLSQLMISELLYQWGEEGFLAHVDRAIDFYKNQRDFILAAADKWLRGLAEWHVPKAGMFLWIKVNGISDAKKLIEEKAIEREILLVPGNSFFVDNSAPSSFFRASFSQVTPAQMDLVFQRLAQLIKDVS
KMO (Rattus norvegicus, UniProt O88867), sequence (O88867 whole entry): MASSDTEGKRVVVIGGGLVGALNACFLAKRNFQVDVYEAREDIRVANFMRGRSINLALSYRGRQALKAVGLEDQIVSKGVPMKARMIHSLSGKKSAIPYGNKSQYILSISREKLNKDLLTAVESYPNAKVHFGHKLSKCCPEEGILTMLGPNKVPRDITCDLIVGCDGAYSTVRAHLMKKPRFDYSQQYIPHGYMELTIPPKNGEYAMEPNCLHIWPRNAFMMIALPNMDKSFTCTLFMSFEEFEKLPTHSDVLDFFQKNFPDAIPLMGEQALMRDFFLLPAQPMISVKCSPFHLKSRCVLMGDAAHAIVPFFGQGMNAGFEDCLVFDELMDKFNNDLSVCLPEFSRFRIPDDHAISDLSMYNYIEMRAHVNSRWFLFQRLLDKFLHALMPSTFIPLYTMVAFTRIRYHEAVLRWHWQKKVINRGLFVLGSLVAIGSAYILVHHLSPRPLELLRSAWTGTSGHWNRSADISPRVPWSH

SMILES: CCS(=O)(=O)c1ccc(C(=O)C[C@H](N)C(=O)O)cc1.Cl [ESBA, (S)-(4-ethylsulfonyl)benzoylalanine hydrochloride]
- Effect on JM6-induced increases in brain KYNA [1]: prevented completely
- Effect on KYNA levels in serum [1]: unaffected

SMILES: COc1ccc(S(=O)(=O)Nc2nc(-c3cccc([N+](=O)[O-])c3)c(CN3CCCCC3)s2)cc1OC [JM6, 2-(3,4-dimethoxybenzenesulfonylamino)-4-(3-nitrophenyl)-5-(piperidin-1-yl)methylthiazole]
- Brain 3-HK levels, APPtg mice, vs control mice (APPtg mice [2]): not significantly different
- Brain KMO activity, APPtg mice, vs control mice (APPtg mice [2]): not significantly different
- Brain KYNA levels, APPtg mice (APPtg mice [2]): increased
- Brain QUIN levels, APPtg mice, vs control mice (APPtg mice [2]): not significantly different
- Plasma KYNA levels, APPtg mice (APPtg mice [2]): increased
- Plasma QUIN levels, APPtg mice, vs control mice (APPtg mice [2]): not significantly different
- Adverse effects on open field behavior, motor performance, or body weight (WT mice): no adverse effects
- Muscle and liver levels after acute dosing ([3]; WT mice, JM6 300 mg/kg p.o.): negligible
- JM6 concentration in brain [3, 14]: 119 ± 46 nM
- JM6 concentration in plasma [3, 14]: 39.1 ± 13.2 µM
- Inclusion body size or abundance in frontoparietal cortex, R6/2 mice (R6/2 mice [4]; JM6 25 mg/kg/day p.o. from 4 weeks of age, EM48 immunostaining): did not influence
- Iba1-positive cells (microglia) vs vehicle-treated controls, R6/2 mice (R6/2 mice [4]; JM6 7.5 or 25 mg/kg/day p.o. from 4 weeks of age): significantly fewer
- Fos immunoreactivity in striatum and cortex, R6/2 mice (R6/2 mice [4]; [15]): prevented the loss
- Synaptophysin in striatum and cortex, R6/2 mice (R6/2 mice [4]; [15]): prevented the loss
- Level in brain dialysate (KMO [5]): < 10 nM
- Serum KYNA level, % of baseline (KMO [5]; single JM6 100 mg/kg p.o., by 5 h): 344%
- Extracellular KYNA level in brain (striatum), % of baseline (KMO [5]; single JM6 100 mg/kg p.o., by 5 h, microdialysis): 180%
- Synaptic loss (synaptophysin) in cortex and hippocampus, APPtg mice (APPtg mice [6]; JM6 75 mg/kg/day p.o. for 120 days, ~7 months of age): prevented
- Aβ plaque load in hippocampus and cortex, APPtg mice (APPtg mice [6]; [16]): did not have a significant effect
- Body weight of R6/2 mice (R6/2 mice [7]): did not influence
- Performance on accelerating rotarod, R6/2 mice (R6/2 mice [7]; early stages of disease): modestly improved
- Increase in distance traveled in the open arm of the EPM, APPtg mice (APPtg mice [8]): significantly attenuated
- Time spent in the open arm of the elevated plus maze, APPtg mice (APPtg mice [8]): not significantly different from WT littermate controls
- Total distance traveled in the EPM (open and closed arm), APPtg mice (APPtg mice [8]): not changed
- Spatial memory in Morris water maze, WT mice (APPtg mice [9]; JM6 75 mg/kg/day p.o.): no effect
- Spatial memory in Morris water maze, APPtg mice (APPtg mice [9]; JM6 75 mg/kg/day p.o. from 2 months of age, tested at ~6 months): significant improvement
- Spatial learning in WT or APPtg mice (APPtg mice [9]; [16]): did not influence
- Extracellular glutamate levels in the brain (prefrontal cortex) (KMO [10]): significant reduction

SMILES: COc1ccc(S(=O)(=O)Nc2nc(-c3cccc([N+](=O)[O-])c3)cs2)cc1OC [Ro 61-8048, 3,4-dimethoxy-[-N-4-(nitrophenyl)thiazol-2yl]-benzenesulfonamide]
- Muscle and liver levels after acute dosing ([3]; WT mice, JM6 300 mg/kg p.o.): negligible
- Ro 61-8048 released from JM6, brain level as % of plasma levels ([3]; WT mice, single JM6 300 mg/kg p.o.): 0.002%
- Ro 61-8048 released from JM6, concentration in brain [3, 17]: 18 nM and 18 ± 5 nM
- Ro 61-8048 released from JM6, concentration in plasma [3, 17]: 7 µM and 7.2 ± 0.8 µM
- Ro 61-8048 released from JM6, concentration in liver ([3]; mice, JM6 300 mg/kg p.o.): 132 nM
- Ro 61-8048 released from JM6, concentration in muscle ([3]; mice, JM6 300 mg/kg p.o.): 149 nM
- Level in brain dialysate (KMO [5]): < 10 nM
- IC50 (KMO [11]): 0.037 µM
- Plasma concentration relative to IC50 for KMO [12, 18]: more than eightfold
- Ro 61-8048 released from JM6, concentration in plasma [12, 18]: ~ 280 nM
- Ro 61-8048 released from JM6 in brain or muscle homogenates ([12]; R6/2 mice chronically treated with JM6, data not shown): could not be detected
- Metabolic stability [13]: metabolically unstable
